{"source": "ChEMBL document CHEMBL1159142", "about": "“A convenient degradation of polyoxin D to uracil polyoxin C: access to key intermediates and synthesis of antifungal -aminoacyl derivatives of UPOC” (Bioorg Med Chem Lett, 1993)", "data": [{"tested_on": "Candida albicans", "test": "Geometric mean minimum inhibitory concentration (GMMIC) for whole cell activity against Candida albicans", "assay_type": "functional", "units": {"GMMIC": "µg/mL"}, "values": [{"smiles": "NC(Cc1c[nH]c2ccc(O)cc12)C(=O)NC[C@H]1OC(n2ccc(=O)[nH]c2=O)[C@H](O)[C@@H]1O", "note": "(some centres not stated)", "GMMIC": ">2048"}, {"smiles": "CC[C@@H](O)C(N)C(=O)N[C@H](C(=O)O)[C@H]1O[C@@H](n2ccc(=O)[nH]c2=O)[C@H](O)[C@@H]1O", "note": "(some centres not stated)", "GMMIC": ">2048"}, {"smiles": "N[C@H](C(=O)O)[C@H]1OC(n2ccc(=O)[nH]c2=O)[C@H](O)[C@@H]1O", "note": "(some centres not stated)", "GMMIC": ">2048"}, {"smiles": "CC[C@H](C)C(N)C(=O)N[C@H](C(=O)O)[C@H]1O[C@@H](n2ccc(=O)[nH]c2=O)[C@H](O)[C@@H]1O", "note": "(some centres not stated)", "GMMIC": ">2048"}, {"smiles": "C[C@H](Cc1ccc(O)cc1)[C@H](N)C(=O)N[C@H](C(=O)O)[C@H]1O[C@@H](n2ccc(=O)[nH]c2=O)[C@H](O)[C@@H]1O", "GMMIC": 35}, {"smiles": "NC(Cc1c[nH]c2ccc(O)cc12)C(=O)N[C@H](CO)[C@H]1OC(n2ccc(=O)[nH]c2=O)[C@H](O)[C@@H]1O", "note": "(some centres not stated)", "GMMIC": ">2048"}, {"smiles": "C[C@@H](Cc1ccc(O)cn1)[C@H](N)C(=O)N[C@H](C(=O)O)[C@H]1O[C@@H](n2ccc(=O)[nH]c2=O)[C@H](O)[C@@H]1O", "GMMIC": 51}, {"smiles": "N[C@@H](Cc1c[nH]c2ccc(F)cc12)C(=O)N[C@H](C(=O)O)[C@H]1O[C@@H](n2ccc(=O)[nH]c2=O)[C@H](O)[C@@H]1O", "GMMIC": ">2048"}, {"smiles": "N[C@H](C(=O)N[C@H](C(=O)O)[C@H]1O[C@@H](n2ccc(=O)[nH]c2=O)[C@H](O)[C@@H]1O)c1csc(O)c1", "GMMIC": ">2048"}, {"smiles": "C=C[C@@H](C)C(N)C(=O)N[C@H](C(=O)O)[C@H]1O[C@@H](n2ccc(=O)[nH]c2=O)[C@H](O)[C@@H]1O", "note": "(some centres not stated)", "GMMIC": 406}, {"smiles": "NC(=O)OC[C@H](O)[C@@H](O)[C@H](N)C(=O)N[C@H](C(=O)O)[C@H]1O[C@@H](n2cc(C(=O)O)c(=O)[nH]c2=O)[C@H](O)[C@@H]1O", "GMMIC": 153}, {"smiles": "N[C@@H](CCc1ccc(O)cc1)C(=O)N[C@H](C(=O)O)[C@H]1O[C@@H](n2ccc(=O)[nH]c2=O)[C@H](O)[C@@H]1O", "GMMIC": 128}, {"smiles": "CC[C@@H](C)C(N)C(=O)N[C@H](C(=O)O)[C@H]1O[C@@H](n2ccc(=O)[nH]c2=O)[C@H](O)[C@@H]1O", "note": "(some centres not stated)", "GMMIC": 44}, {"smiles": "CC(C)[C@H](N)C(=O)N[C@H](C(=O)O)[C@H]1O[C@@H](n2ccc(=O)[nH]c2=O)[C@H](O)[C@@H]1O", "GMMIC": 87}, {"smiles": "N[C@@H](Cc1c[nH]c2ccccc12)C(=O)N[C@H](C(=O)O)[C@H]1O[C@@H](n2ccc(=O)[nH]c2=O)[C@H](O)[C@@H]1O", "GMMIC": 2048}, {"smiles": "COc1ccc2[nH]cc(C[C@H](N)C(=O)N[C@H](C(=O)O)[C@H]3O[C@@H](n4ccc(=O)[nH]c4=O)[C@H](O)[C@@H]3O)c2c1", "GMMIC": ">2048"}, {"smiles": "N[C@@H](Cc1c[nH]c2ccc(O)cc12)C(=O)N[C@H](C(=O)O)[C@H]1O[C@@H](n2ccc(=O)[nH]c2=O)[C@H](O)[C@@H]1O", "GMMIC": 27}, {"smiles": "C[C@H](Cc1ccc(O)cn1)[C@H](N)C(=O)N[C@H](C(=O)O)[C@H]1O[C@@H](n2ccc(=O)[nH]c2=O)[C@H](O)[C@@H]1O", "GMMIC": 9.3}, {"smiles": "NCC(=O)N[C@H](C(=O)O)[C@H]1O[C@@H](n2ccc(=O)[nH]c2=O)[C@H](O)[C@@H]1O", "GMMIC": ">2048"}, {"smiles": "N[C@@H](CCc1ccc(O)cn1)C(=O)N[C@H](C(=O)O)[C@H]1O[C@@H](n2ccc(=O)[nH]c2=O)[C@H](O)[C@@H]1O", "GMMIC": 118}, {"smiles": "C[C@@H]([C@H](N)C(=O)N[C@H](C(=O)O)[C@H]1O[C@@H](n2ccc(=O)[nH]c2=O)[C@H](O)[C@@H]1O)[C@H](O)c1ccc(O)cn1", "note": "[NIKKOMYCIN]", "GMMIC": 6}, {"smiles": "CSCCC(N)C(=O)N[C@H](C(=O)O)[C@H]1O[C@@H](n2ccc(=O)[nH]c2=O)[C@H](O)[C@@H]1O", "note": "(some centres not stated)", "GMMIC": 49}]}]}
